Values joined by “and” are separate entries in the source; they are usually repeats but may differ in a detail not shown here. Identical values can stand only once.
Key:
Assay in all cases: biochemical
Parameters in all cases: endogenous in cells; host or cells: K562 cell extract; species or system K562 (extract); replicate k of n = 2 (each experiment ID is one independent experiment; two experiment IDs per compound)
Conditions in all cases: read-out: KDapp
CRKRS = CRKRS (Homo sapiens, UniProt Q9NYV4)
MAP3K11 = MAP3K11 (Homo sapiens, UniProt Q16584)
Sequence of MAP3K11 (Q16584 whole entry): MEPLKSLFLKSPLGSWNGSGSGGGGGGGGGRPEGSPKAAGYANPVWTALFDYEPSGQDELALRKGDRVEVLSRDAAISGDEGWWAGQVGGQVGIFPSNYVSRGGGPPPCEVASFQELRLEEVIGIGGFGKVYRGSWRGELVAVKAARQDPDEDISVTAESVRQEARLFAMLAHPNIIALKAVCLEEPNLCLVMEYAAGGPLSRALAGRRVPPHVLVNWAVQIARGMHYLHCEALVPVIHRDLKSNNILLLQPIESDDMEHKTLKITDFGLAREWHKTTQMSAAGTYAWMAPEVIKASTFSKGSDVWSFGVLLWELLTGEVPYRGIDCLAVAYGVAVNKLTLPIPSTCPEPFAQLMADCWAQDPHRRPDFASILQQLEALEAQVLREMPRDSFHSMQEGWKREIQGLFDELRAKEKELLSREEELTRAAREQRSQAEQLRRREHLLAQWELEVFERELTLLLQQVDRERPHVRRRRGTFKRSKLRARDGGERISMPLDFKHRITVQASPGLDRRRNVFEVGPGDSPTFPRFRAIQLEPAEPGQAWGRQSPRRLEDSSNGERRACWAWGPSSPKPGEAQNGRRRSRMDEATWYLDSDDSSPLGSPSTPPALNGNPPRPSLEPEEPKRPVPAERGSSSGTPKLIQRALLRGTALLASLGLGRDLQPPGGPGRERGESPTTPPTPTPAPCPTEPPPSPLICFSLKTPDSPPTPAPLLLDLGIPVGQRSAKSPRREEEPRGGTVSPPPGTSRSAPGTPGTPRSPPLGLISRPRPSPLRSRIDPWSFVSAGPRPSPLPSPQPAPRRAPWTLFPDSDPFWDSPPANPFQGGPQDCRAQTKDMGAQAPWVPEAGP

MAP4K4 = MAP4K4 (Homo sapiens, UniProt O95819)
Sequence of MAP4K4 (O95819 whole entry): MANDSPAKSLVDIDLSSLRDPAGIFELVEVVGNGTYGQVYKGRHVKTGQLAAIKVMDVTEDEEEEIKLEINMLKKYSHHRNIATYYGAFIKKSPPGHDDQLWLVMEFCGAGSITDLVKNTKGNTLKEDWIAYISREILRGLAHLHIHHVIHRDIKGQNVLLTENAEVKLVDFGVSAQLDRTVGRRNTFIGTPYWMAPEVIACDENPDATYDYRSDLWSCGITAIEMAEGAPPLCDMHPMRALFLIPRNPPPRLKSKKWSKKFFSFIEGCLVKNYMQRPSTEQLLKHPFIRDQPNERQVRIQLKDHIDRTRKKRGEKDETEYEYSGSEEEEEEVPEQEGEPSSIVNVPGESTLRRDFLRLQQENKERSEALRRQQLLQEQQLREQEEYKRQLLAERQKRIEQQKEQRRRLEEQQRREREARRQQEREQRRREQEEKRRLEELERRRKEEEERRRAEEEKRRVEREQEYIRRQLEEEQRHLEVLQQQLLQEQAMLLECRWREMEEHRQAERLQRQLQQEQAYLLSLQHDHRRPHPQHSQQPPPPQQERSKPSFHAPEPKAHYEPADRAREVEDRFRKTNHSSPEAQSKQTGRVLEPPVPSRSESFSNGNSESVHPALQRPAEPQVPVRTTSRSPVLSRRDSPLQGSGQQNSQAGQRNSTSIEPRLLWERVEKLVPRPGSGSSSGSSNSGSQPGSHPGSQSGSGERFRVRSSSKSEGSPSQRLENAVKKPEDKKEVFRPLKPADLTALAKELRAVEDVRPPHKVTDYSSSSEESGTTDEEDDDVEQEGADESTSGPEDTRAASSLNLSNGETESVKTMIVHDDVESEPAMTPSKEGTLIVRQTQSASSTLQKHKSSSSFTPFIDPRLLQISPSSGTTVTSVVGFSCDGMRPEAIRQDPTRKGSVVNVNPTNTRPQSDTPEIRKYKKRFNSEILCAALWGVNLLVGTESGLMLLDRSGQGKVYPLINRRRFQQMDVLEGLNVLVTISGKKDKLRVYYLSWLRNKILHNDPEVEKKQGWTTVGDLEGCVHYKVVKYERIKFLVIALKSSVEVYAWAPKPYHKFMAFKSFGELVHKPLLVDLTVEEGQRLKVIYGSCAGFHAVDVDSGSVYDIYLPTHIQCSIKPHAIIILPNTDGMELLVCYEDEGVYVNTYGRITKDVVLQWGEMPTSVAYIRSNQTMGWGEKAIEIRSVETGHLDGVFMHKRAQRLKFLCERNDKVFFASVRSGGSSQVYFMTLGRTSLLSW

MYLK3 = target: T1, MYLK3 (Homo sapiens, UniProt Q32MK0)
T1 sequence (Q32MK0 1-819): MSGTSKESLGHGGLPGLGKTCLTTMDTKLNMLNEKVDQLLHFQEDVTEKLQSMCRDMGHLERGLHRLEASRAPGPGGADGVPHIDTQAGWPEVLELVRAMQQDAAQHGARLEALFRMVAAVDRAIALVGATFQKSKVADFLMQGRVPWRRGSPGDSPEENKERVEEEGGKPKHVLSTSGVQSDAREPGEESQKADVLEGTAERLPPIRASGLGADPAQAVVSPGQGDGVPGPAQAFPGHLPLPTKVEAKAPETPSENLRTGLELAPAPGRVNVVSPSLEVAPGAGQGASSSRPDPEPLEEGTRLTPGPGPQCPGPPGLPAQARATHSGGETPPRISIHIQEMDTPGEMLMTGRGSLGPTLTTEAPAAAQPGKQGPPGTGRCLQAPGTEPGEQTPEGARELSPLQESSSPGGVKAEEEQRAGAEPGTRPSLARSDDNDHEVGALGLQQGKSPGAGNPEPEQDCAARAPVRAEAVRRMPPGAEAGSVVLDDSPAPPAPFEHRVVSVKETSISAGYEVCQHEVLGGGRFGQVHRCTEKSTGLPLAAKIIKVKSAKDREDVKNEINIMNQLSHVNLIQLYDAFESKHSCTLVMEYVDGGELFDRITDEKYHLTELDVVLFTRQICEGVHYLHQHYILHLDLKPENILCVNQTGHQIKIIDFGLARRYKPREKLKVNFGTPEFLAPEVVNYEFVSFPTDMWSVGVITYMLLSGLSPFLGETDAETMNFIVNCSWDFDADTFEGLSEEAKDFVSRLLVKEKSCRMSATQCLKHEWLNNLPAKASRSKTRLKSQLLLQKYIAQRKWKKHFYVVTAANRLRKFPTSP

BUB1 = BUB1 (Homo sapiens, UniProt O43683)
Sequence of BUB1 (O43683 whole entry): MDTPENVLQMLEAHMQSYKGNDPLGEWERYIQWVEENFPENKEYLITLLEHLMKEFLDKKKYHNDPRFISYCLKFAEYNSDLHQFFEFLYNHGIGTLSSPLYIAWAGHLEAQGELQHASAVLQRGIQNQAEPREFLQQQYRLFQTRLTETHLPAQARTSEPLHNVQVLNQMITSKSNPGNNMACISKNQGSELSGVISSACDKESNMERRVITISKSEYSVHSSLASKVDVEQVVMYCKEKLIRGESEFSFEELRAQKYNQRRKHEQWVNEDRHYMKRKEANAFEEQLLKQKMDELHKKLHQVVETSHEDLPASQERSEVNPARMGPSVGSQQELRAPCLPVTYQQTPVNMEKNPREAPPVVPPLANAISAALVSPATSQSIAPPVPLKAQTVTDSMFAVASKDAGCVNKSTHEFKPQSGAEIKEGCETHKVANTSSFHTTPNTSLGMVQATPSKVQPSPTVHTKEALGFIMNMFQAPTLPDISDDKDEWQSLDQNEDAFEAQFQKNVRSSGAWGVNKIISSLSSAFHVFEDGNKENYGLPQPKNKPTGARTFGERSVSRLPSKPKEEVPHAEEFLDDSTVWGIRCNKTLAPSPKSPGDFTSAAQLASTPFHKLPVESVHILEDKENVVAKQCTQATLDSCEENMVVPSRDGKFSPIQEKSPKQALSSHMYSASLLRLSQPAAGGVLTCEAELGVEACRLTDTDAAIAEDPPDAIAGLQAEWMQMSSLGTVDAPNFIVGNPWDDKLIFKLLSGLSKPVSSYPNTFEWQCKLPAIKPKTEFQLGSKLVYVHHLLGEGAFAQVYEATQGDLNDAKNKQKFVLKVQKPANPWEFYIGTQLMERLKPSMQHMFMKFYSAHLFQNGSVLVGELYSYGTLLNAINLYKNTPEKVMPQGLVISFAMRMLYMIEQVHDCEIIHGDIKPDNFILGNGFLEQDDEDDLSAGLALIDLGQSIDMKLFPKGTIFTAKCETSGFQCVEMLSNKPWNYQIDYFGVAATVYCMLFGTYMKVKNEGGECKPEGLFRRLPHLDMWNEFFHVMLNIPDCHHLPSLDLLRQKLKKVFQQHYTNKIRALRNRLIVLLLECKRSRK

KIAA0999 = KIAA0999 (Homo sapiens, UniProt Q9Y2K2)
Sequence of KIAA0999 (Q9Y2K2 whole entry): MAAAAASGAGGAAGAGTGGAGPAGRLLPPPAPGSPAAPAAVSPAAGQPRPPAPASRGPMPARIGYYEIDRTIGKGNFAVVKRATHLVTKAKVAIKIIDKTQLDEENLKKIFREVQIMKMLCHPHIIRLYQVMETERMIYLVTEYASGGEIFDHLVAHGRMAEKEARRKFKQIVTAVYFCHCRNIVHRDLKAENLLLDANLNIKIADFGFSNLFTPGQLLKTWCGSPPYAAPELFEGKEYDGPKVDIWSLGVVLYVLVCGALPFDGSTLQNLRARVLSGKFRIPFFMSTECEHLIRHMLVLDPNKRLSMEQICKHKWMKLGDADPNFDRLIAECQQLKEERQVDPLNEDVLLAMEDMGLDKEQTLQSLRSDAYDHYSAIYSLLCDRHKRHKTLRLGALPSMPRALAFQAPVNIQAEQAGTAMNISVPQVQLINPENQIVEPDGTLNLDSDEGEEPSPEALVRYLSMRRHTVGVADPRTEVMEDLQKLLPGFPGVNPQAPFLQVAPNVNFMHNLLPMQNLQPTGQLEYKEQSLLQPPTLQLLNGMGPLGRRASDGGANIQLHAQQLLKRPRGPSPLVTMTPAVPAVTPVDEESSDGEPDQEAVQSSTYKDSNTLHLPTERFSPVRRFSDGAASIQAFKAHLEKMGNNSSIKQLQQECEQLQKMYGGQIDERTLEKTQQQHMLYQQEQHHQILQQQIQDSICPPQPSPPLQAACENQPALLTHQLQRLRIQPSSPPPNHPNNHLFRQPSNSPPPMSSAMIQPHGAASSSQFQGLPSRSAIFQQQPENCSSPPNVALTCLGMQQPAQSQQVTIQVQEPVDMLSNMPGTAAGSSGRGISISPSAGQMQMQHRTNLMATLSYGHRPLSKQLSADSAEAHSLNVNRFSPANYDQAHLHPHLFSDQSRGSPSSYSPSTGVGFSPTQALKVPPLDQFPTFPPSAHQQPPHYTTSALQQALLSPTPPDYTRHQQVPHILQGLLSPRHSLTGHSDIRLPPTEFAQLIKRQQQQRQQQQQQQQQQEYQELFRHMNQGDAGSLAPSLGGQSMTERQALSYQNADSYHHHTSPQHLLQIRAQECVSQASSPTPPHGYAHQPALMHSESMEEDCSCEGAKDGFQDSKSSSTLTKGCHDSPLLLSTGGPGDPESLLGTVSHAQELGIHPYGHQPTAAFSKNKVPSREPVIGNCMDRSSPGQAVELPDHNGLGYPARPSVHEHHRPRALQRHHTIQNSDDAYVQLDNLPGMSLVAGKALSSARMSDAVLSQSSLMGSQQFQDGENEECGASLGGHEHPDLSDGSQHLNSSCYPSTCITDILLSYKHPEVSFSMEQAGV

LATS1 = target: T2, LATS1 (Homo sapiens, UniProt O95835)
T2 sequence (O95835 1-1130): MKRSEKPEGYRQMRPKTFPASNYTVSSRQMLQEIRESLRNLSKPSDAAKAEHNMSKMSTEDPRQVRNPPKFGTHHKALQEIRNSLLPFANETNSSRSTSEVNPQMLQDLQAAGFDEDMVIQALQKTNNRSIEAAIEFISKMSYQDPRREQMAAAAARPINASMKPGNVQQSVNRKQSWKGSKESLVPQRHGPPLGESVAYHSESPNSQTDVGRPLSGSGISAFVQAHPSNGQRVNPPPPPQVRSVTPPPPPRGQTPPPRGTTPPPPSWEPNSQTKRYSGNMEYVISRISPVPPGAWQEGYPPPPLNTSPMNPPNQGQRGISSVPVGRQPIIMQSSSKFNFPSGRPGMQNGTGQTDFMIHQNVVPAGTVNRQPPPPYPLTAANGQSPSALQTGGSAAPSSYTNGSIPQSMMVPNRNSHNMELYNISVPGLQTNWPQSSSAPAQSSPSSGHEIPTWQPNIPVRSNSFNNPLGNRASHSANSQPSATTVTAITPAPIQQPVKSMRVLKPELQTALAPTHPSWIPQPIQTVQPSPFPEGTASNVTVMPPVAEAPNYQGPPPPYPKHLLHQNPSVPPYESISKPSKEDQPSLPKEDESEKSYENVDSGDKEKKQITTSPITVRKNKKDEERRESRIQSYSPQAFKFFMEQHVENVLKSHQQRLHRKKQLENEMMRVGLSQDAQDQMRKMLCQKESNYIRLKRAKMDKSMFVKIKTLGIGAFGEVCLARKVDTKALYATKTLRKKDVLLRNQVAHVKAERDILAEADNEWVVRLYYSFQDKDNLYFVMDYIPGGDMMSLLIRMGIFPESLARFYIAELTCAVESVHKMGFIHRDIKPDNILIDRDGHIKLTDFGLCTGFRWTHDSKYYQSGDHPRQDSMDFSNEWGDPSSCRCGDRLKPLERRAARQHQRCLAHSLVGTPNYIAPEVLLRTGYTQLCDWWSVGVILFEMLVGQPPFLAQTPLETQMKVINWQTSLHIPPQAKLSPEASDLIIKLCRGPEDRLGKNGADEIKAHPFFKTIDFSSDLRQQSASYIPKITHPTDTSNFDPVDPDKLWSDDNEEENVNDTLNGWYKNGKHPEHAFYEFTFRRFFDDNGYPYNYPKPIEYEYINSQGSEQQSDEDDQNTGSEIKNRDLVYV

## CN(C)CC(O)COc1ccc(Nc2ncc([N+](=O)[O-])c(Nc3ccccc3O)n2)cc1.O=C(O)C(F)(F)F (centres unmarked) [TCMDC-141399]
CRKRS
  Kd: 1.64 µM
MAP3K11
  Kd: 0.728 µM and 0.328 µM
MAP4K4
  Kd: 1.02 µM and 0.68 µM
MYLK3
  Kd: 1.76 µM and 1.51 µM

## Cl.NCC1(c2nc(-c3ccc(Cl)c(O)c3)c(-c3ccncc3)[nH]2)CCCCC1 [TCMDC-141154]
BUB1
  Kd: 0.0825 µM and 0.0584 µM
KIAA0999
  Kd: 0.0403 µM and 0.0312 µM
LATS1
  Kd: 0.911 µM
MAP4K4
  Kd: 0.85 µM and 0.539 µM

## CN1CCN(c2ccc(Nc3ncc(C#N)c(Nc4ccccc4C(N)=O)n3)cc2)CC1.Cl [TCMDC-134116]
BUB1
  Kd: 0.127 µM and 0.11 µM
CRKRS
  Kd: 0.507 µM
KIAA0999
  Kd: 0.214 µM and 0.153 µM
LATS1
  Kd: 0.174 µM
MAP3K11
  Kd: 0.0463 µM
MYLK3
  Kd: 0.056 µM and 0.0778 µM

— article PMC4774911, “Biochemical Screening of Five Protein Kinases from Plasmodium falciparum against 14,000 Cell-Active Compounds” (PLoS ONE, 2016)
